From patent US8987316B2, “Isocyanate and isothiocyanate compounds for cancer treatment” (priority 2011, dated 2015)

Columns and labels:
Breast tumors (MAXF 401) = assay: Breast tumor MAXF 401 xenograft in nude mice, T/C value and mortality; assay type: in vivo; conditions: ip twice weekly over 5 weeks
Method: (§1) All the tests were carried out using female nude mice under standard conditions for the keeping of animals with controlled illumination and temperature. The animals were given water and food as desired.
(§2) Breast tumors (MAXF 401) were implanted subcutaneously into the rear members of the mice aged 10 weeks. The increase in the volume of the individual tumors was measured using microcallipers, and the size of the tumor was calculated according to the formula a*b^2/2 (where a is the largest diameter of the tumor and b is the vertical axis). When the tumor volume had increased to 80-120 mm^3, the animals were allocated at random into test groups of in each case 6 animals.
The test compound (in the form of sodium salts) was dissolved in a saline solution, and 5% Klucel (hydroxypropylcellulose) was added in order to dissolve the test compound in the carrier. The compound was administered by intraperitoneal injection. A volume of 10 ml/kg body weight was injected. […] The tumor volume and the body weight were checked twice weekly, and the relative tumor volumes were calculated as the […]. […]
On the basis of the relative tumor volumes of the animals treated with the test compound compared with the tumor volumes of the controls treated only with the carrier, the T/C values were calculated and were used as the index of anti-tumor activity. […]

MAXF-401 xenograft tumor = assay: Dose-dependent anti-tumor activity in the MAXF-401 xenograft tumor model; assay type: in vivo
Method: as §2
The anti-tumor activity of the substance of Example 2a (sodium salt) was tested in a xenograft tumor panel. Therefore, xenografts of human tumors derived from the mentioned cancers were implanted in nude mice. The implantation and the determination of tumor volumes were carried out as described hereinbefore. Groups of 5 to 8 animals were used. The test compound was administered by ip injection twice weekly in the mentioned doses in the form of the sodium salt as an aqueous solution.
Therein, the anti-tumor activity of the compound of Example 2a (sodium salt) was examined in the MAXF-401 xenograft tumor model in the nude mouse. Subcutaneous implantation of the tumor and the determination of the tumor volume was carried out as described hereinbefore. The test compound was administered by ip injection twice weekly in the mentioned doses in the form of the sodium salt as an aqueous solution over a period of 4 weeks. […] A dose of 100 mg/kg was determined as the threshold dose, ≧200 mg/kg as the ED90 of the anti-tumor activity.

[1] = test system: CXF280 xenograft tumor (colon carcinoma); assay: Dose-dependent anti-tumor activity in the CXF280 colon carcinoma xenograft model; assay type: in vivo
Method: as §2
The anti-tumor activity of the compound of Example 2a was thereby determined in the CXF280 xenograft tumor model in the nude mouse. Subcutaneous implantation of the tumor and the determination of tumor volumes were carried out as described hereinbefore. The test substance was administered by ip injection twice weekly in the mentioned doses in the form of the sodium salt as an aqueous solution, over a period of 4 weeks. Groups of in each case 8 animals were used.

[2] = Necrotic changes in the kidneys of treated animals; assay type: in vivo, nude mice; conditions: affected animals/animals
Method: as §1
No necrotic changes were found in the kidneys of the animals treated with the compound according to the invention. This confirms the excellent tolerability profile of the compounds according to the invention.

[3] = MAXF-401, ip twice weekly over 4 weeks, sodium salt

O=C(O)CCOc1ccc(C(=O)c2ccc(N=C=S)cc2)cc1 [Example 2a]
T/C value (Breast tumors (MAXF 401); MAXF 401 breast tumor, sodium salt, ratio of tumor size treated/untreated, 100% would be no activity): 1.7 | Mortality (Breast tumors (MAXF 401); dead animals/animals in the group): 0/6 | tolerability (MAXF-401 xenograft tumor; MAXF-401, dose range used): well tolerated | tumor response under therapy (MAXF-401 xenograft tumor; MAXF-401, dose ≧200 mg/kg): remission of the tumors was observed | ED90 of the anti-tumor activity (MAXF-401 xenograft tumor; [3]): ≥ 200 mg/kg | threshold dose of the anti-tumor activity (MAXF-401 xenograft tumor; [3]): 100 mg/kg | tumor growth inhibition and remission ([1]; CXF280, dose group of 200 mg/kg and 300 mg/kg): complete inhibition of tumor growth and the induction of remissions to obliteration of the tumor | tolerability ([1]; CXF280, dose range used): well tolerated | weight loss in the animals ([1]; CXF280, dose range used): not associated with a significant weight loss | anti-tumor action ([1]; CXF280, doses of 100, 200 or 300 mg/kg ip twice weekly over 4 weeks): pronounced anti-tumor action | ED90 doses ([1]; CXF280, ip twice weekly over 4 weeks): 200 mg/kg | Acute single-cell necrosis [2]: 0/9 | Focal tubular necrosis [2]: 0/9
